US9682938B2, “Pyrazolone derivatives as nitroxyl donors” (Cardioxyl Pharmaceuticals, Inc., priority 2014, dated 2017)

Experiments:
Type in all cases: in vitro ADME
[1] = In vitro plasma stability, dog plasma; details: male, pH 7.4, 5 μM, 37° C., sampling 0-360 minutes, read-out: T1/2 Dog
Description: (§1) Certain compounds from Table 1 were tested for their stability in plasma. The assay system comprised plasma from rat, dog or human (at least 3 donors, male, pooled) at pH 7.4, and (ii) an anticoagulant (sodium heparin or sodium citrate). Each test compound (5 μM) was incubated in plasma at 37° C. on a THERMOMIXER® with shaking. Three samples (n=3) were taken at each of seven sampling time points: 0, 10, 30, 60, 90, 180 and 360 minutes. The samples were immediately combined with 3 volumes (i.e., 3 times the volume of plasma) of acetonitrile containing 1% formic acid and an internal standard to terminate the reaction. AB SCIEX API 3000 LC-MS/MS analysis of the test compounds was performed without a standard curve. Plasma half-lives (T1/2) of the test compounds were determined from graphs of the percent remaining values using the peak area response ratio.

[2] = In vitro plasma stability, rat plasma; details: male, pH 7.4, 5 μM, 37° C., sampling 0-360 minutes, read-out: T1/2 Rat
Description: as §1

[3] = In vitro plasma stability, human plasma; details: male, pH 7.4, 5 μM, 37° C., sampling 0-360 minutes, read-out: T1/2 Human
Description: as §1

Row | SMILES | half-life at 5 μM [1] | half-life at 5 μM [2] | half-life at 5 μM [3]
1 | CN1N=C(c2ccc(F)cc2)C(C)(NO)C1=O (stereo not drawn) [Compound 5, 5-(4-fluorophenyl)-4-(hydroxyamino)-2,4-dimethyl-2,4-dihydro-3H-pyrazol-3-one] | 172 min | 78 min | 108 min
2 | Cc1cc(C)cc(C2=NN(C)C(=O)C2(C)NO)c1 (stereo not drawn) [Compound 7, 5-(3,5-dimethylphenyl)-4-(hydroxyamino)-2,4-dimethyl-2,4-dihydro-3H-pyrazol-3-one] | 117 min | 34 min | 104 min
3 | CC(C)N1N=C(c2ccccc2Cl)C(C)(NO)C1=O (stereo not drawn) [Compound 8, 5-(2-chlorophenyl)-4-(hydroxyamino)-2-iso-propyl-4-methyl-2,4-dihydro-3H-pyrazol-3-one] | 170 min | – | –
4 | CN1N=C(c2cc(Cl)cc(Cl)c2)C(C)(NO)C1=O (stereo not drawn) [Compound 9, 5-(3,5-dichlorophenyl)-4-(hydroxyamino)-2,4-dimethyl-2,4-dihydro-3H-pyrazol-3-one] | 59 min | 17 min | 43 min
5 | CO/N=C(\C)C1(NO)C(=O)N(C)N=C1C(C)(C)C (stereo not drawn) [Compound 10, 5-(tert-butyl)-4-(hydroxyamino)-4-(1-(methoxyimino)ethyl)-2-methyl-2,4-dihydro-3H-pyrazol-3-one] | 40 min | 21 min | 12 min
6 | CN1N=C(c2ccc([S+](C)[O-])cc2)C(C)(NO)C1=O (stereo not drawn) [Compound 11, 4-(hydroxyamino)-2,4-dimethyl-5-(4-(methylsulfinyl)phenyl)-2,4-dihydro-3H-pyrazol-3-one] | 39 min | 88 min | 65 min
7 | CN1N=C(c2ccc(F)cc2Cl)C(C)(NO)C1=O (stereo not drawn) [Compound 12, 5-(2-chloro-4-fluorophenyl)-4-(hydroxyamino)-2,4-dimethyl-2,4-dihydro-3H-pyrazol-3-one] | 28 min | 20 min | 18 min
8 | CO/N=C(\C)C1(NO)C(=O)N(c2ccccc2)N=C1C(C)C (stereo not drawn) [Compound 16, 4-(hydroxyamino)-5-iso-propyl-4-(1-(methoxyimino)ethyl)-2-phenyl-2,4-dihydro-3H-pyrazol-3-one] | 8 min | – | –
9 | CO/N=C(\C)C1(NO)C(=O)N(c2ccc(Br)cc2)N=C1C(C)C (stereo not drawn) [Compound 17, 2-(4-bromophenyl)-4-(hydroxyamino)-5-iso-propyl-4-(1-(methoxyimino)ethyl)-2,4-dihydro-3H-pyrazol-3-one] | < 1 min | – | –
10 | CO/N=C(\C)C1(NO)C(=O)N(c2ccccc2)N=C1C(C)(C)C (stereo not drawn) [Compound 18, 5-(tert-butyl)-4-(hydroxyamino)-4-(1-(methoxyimino)ethyl)-2-phenyl-2,4-dihydro-3H-pyrazol-3-one] | 13 min | 17 min | 26 min
11 | COc1ccc(C2=NN(C)C(=O)C2(C)NO)cc1F (stereo not drawn) [Compound 19, 5-(3-fluoro-4-methoxyphenyl)-4-(hydroxyamino)-2,4-dimethyl-2,4-dihydro-3H-pyrazol-3-one] | 95 min | 90 min | 163 min
12 | CO/N=C(\C)C1(NO)C(=O)N(C)N=C1C1CC1 (stereo not drawn) [Compound 20, 5-cyclopropyl-4-(hydroxyamino)-4-(1-(methoxyimino)ethyl)-2-methyl-2,4-dihydro-3H-pyrazol-3-one] | 20 min | – | –
13 | CN1N=C(c2ccccc2[S+](C)[O-])C(C)(NO)C1=O (stereo not drawn) [Compound 21, 4-(hydroxyamino)-2,4-dimethyl-5-(2-(methylsulfinyl)phenyl)-2,4-dihydro-3H-pyrazol-3-one] | 24 min | 36 min | 41 min
14 | CO/N=C(\C)C1(NO)C(=O)N(C(C)C)N=C1C(C)(C)C (stereo not drawn) [Compound 28, 5-(tert-butyl)-4-(hydroxyamino)-2-iso-propyl-4-(1-(methoxyimino)ethyl)-2,4-dihydro-3H-pyrazol-3-one] | 87 min | – | –
15 | CC1(NO)C(=O)N(c2ccccc2)N=C1c1ccccc1F (stereo not drawn) [Compound 29, 5-(2-fluorophenyl)-4-(hydroxyamino)-4-methyl-2-phenyl-2,4-dihydro-3H-pyrazol-3-one] | 58 min | – | –
16 | CC1(NO)C(=O)N(c2ccc(Br)cc2)N=C1c1ccccc1Cl (stereo not drawn) [Compound 44, 1-(4-bromophenyl)-3-(2-chlorophenyl)-4-(hydroxyamino)-4-methyl-1H-pyrazol-5(4H)-one] | 26 min | – | –
17 | CC1=NN(c2ccc(Br)cc2)C(=O)C1(NO)c1ccccc1 (stereo not drawn) [Compound 47, 1-(4-bromophenyl)-4-(hydroxyamino)-3-methyl-4-phenyl-1H-pyrazol-5(4H)-one] | 11 min | – | –
18 | CC1(NO)C(=O)N(c2ccc(Br)cc2)N=C1c1ccccc1 (stereo not drawn) [Compound 50, 1-(4-bromophenyl)-4-(hydroxyamino)-4-methyl-3-phenyl-1H-pyrazol-5(4H)-one] | 356 min | – | –
19 | CO/N=C(\C)C1(NO)C(=O)N(C)N=C1c1ccc(C(F)(F)F)cc1 (stereo not drawn) [Compound 52, 4-(hydroxyamino)-4-(1-(methoxyimino)ethyl)-1-methyl-3-(4-(trifluoromethyl)phenyl)-1H-pyrazol-5(4H)-one] | 8 min | – | –

Row | SMILES | half-life at 5 μM [1] | half-life at 5 μM [2] | half-life at 5 μM [3]
20 | CN1N=C(c2cccc(Cl)c2)C(C)(NO)C1=O (stereo not drawn) [Compound 54, 3-(3-chlorophenyl)-4-(hydroxyamino)-1,4-dimethyl-1H-pyrazol-5(4H)-one] | 159 min | – | –
21 | COc1ccccc1C1=NN(C)C(=O)C1(C)NO (stereo not drawn) [Compound 55, 4-(hydroxyamino)-3-(2-methoxyphenyl)-1,4-dimethyl-1H-pyrazol-5(4H)-one] | 116 min | – | –
22 | CN1N=C(c2ccccc2OC(F)(F)F)C(C)(NO)C1=O (stereo not drawn) [Compound 56, 4-(hydroxyamino)-1,4-dimethyl-3-(2-(trifluoromethoxy)phenyl)-1H-pyrazol-5(4H)-one] | 69 min | – | –
23 | CN1N=C(c2cccc(Cl)c2Cl)C(C)(NO)C1=O (stereo not drawn) [Compound 57, 3-(2,3-dichlorophenyl)-4-(hydroxyamino)-1,4-dimethyl-1H-pyrazol-5(4H)-one] | 15 min | – | –
24 | CN1N=C(c2ccc(Cl)cc2Cl)C(C)(NO)C1=O (stereo not drawn) [Compound 58, 3-(2,4-dichlorophenyl)-4-(hydroxyamino)-1,4-dimethyl-1H-pyrazol-5(4H)-one] | 19 min | – | –
25 | CN1N=C(c2ccccc2C(F)(F)F)C(C)(NO)C1=O (stereo not drawn) [Compound 60, 4-(hydroxyamino)-1,4-dimethyl-3-(2-(trifluoromethyl)phenyl)-1H-pyrazol-5(4H)-one] | 49 min | – | –
26 | CC1(NO)C(=O)N(c2ccccc2)N=C1C(F)(F)F (stereo not drawn) [Compound 61, 4-(hydroxyamino)-4-methyl-1-phenyl-3-(trifluoromethyl)-1H-pyrazol-5(4H)-one] | > 360 min | – | –
27 | CCOc1cc(F)ccc1C1=NN(C)C(=O)C1(C)NO (stereo not drawn) [Compound 62, 3-(2-ethoxy-4-fluorophenyl)-4-(hydroxyamino)-1,4-dimethyl-1H-pyrazol-5(4H)-one] | 44 min | 114 min | –
28 | CO/N=C(\C)C1(NO)C(=O)N(C)N=C1C(C)C (stereo not drawn) [Compound 63, 4-(hydroxyamino)-3-isopropyl-4-(1-(methoxyimino)ethyl)-1-methyl-1H-pyrazol-5(4H)-one] | > 360 min | – | –
29 | CC1=NN(C)C(=O)C1(NO)c1ccc([S+](C)[O-])cc1 (stereo not drawn) [Compound 65, 4-(hydroxyamino)-1,3-dimethyl-4-(4-(methylsulfinyl)phenyl)-1H-pyrazaol-5(4H)-one] | 8 min | – | –
30 | COc1ccc(C2(NO)C(=O)N(C)N=C2C)cc1C (stereo not drawn) [Compound 76, 4-(Hydroxyamino)-4-(4-methoxy-3-methylphenyl)-1,3-dimethyl-4,5-dihydro-1H-pyrazol-5-one] | 21 min | – | –
31 | CN1N=C(c2ccc(C(C)(C)C)cc2)C(C)(NO)C1=O (stereo not drawn) [Compound 91, 3-(4-tert-Butylphenyl)-4-(hydroxyamino)-1,4-dimethyl-4,5-dihydro-1H-pyrazol-5-one] | 226 min | – | –
32 | CN1N=C(c2ccc(C(=O)NCC(=O)O)cc2)C(C)(NO)C1=O (stereo not drawn) [Compound 95, 2-({4-[4-(Hydroxyamino)-1,4-dimethyl-5-oxo-4,5-dihydro-1H-pyrazol-3-yl]phenyl}formamido)acetic acid] | 120 min | – | –
33 | CC1=NN(C)C(=O)C1(NO)c1cccc(F)c1 (stereo not drawn) [Compound 96, 4-(3-Fluorophenyl)-4-(hydroxyamino)-1,3-dimethyl-4,5-dihydro-1H-pyrazol-5-one] | 6 min | – | –
34 | CC1=NN(C)C(=O)C1(NO)c1cccc(Cl)c1 (stereo not drawn) [Compound 99, 4-(3-Chlorophenyl)-4-(hydroxyamino)-1,3-dimethyl-4,5-dihydro-1H-pyrazol-5-one] | 4 min | – | –
35 | CC1=NN(C)C(=O)C1(NO)/C(C)=N/Oc1ccccc1 (stereo not drawn) [Compound 102, 4-(Hydroxyamino)-1,3-dimethyl-4-[1-(phenoxyimino)ethyl]-4,5-dihydro-1H-pyrazol-5-one] | < 1 min | – | –
36 | CC1=NN(C)C(=O)C1(NO)/C(C)=N/OCc1ccccc1 (stereo not drawn) [Compound 103, 4-(Hydroxyamino)-1,3-dimethyl-4-[1-(benzyloxyimino)ethyl]-4,5-dihydro-1H-pyrazol-5-one] | 3 min | – | –
37 | CO/N=C(\C)C1(NO)C(=O)N(c2ccccc2)N=C1Sc1ccccc1 (stereo not drawn) [Compound 128, 4-(Hydroxyamino)-4-[1(methoxyimino)ethyl]-1-phenyl-3-(phenylsulfanyl)-4,5-dihydro-1H-pyrazol-5-one] | 3 min | 7 min | –
